The results in this text go back to patent US8268882B2 (priority 2009, dated 2012).

Data set [1] relates to IL-2 production in Jurkat cells. In words: cells. The format is cell-based, human. The following applies: for IC50: read-out: immunosuppression IL-2 (IC50).
Data set [2] has as its system Human T cell lymphoma (Jurkat) cells.
Another data set can be described thus: in vitro. The following applies: human.

Like-named read-outs stand apart in the source and are kept apart here.

As to `CC(C)[C@]12O[C@H]1[C@@H]1O[C@]13[C@@]1(OC(=O)O[C@H]21)[C@H](Cl)C[C@H]1C2=C(CC[C@@]13C)C(=O)OC2` [PG762], in data set [1], the “inhibition of IL-2 production” value is listed as “inhibited IL-2 production”. Moreover, the half-maximal inhibitory concentration (IC50) (usually the concentration at which inhibition is half-maximal) in data set [1] (Homo sapiens, Jurkat, 24 h) is 9 nM. In data set [2], the “cytotoxicity in MTT assay compared with triptolide” value is “comparable potency” and the “cytotoxicity to Jurkat cells” value is “cytotoxic to Jurkat cells”. The molecule also displayed an EC50 in the data set “in vitro” of 60 nM.

Regarding `CC(C)[C@]12O[C@H]1[C@@H]1O[C@]13[C@]1(O[C@H]1C[C@H]1C4=C(CC[C@@]13C)C(=O)OC4)[C@@H]2OC(=O)C(=O)O[C@@H]1[C@@]2(C(C)C)O[C@H]2[C@@H]2O[C@]23[C@]12O[C@H]2C[C@H]1C2=C(CC[C@@]13C)C(=O)OC2` [PG782], in data set [1], the “inhibition of IL-2 production” value was “inhibited IL-2 production”. Moreover, the half-maximal inhibitory concentration (IC50) in data set [1] (Homo sapiens, Jurkat, 24 h) worked out at 2 nM. Also, in data set [2], the “cytotoxicity in MTT assay compared with triptolide” value is on record as “more potent than triptolide” and the “cytotoxicity to Jurkat cells” value was “cytotoxic to Jurkat cells”. This molecule also came in with an EC50 in “in vitro” of 53 nM.

For `CC(C)[C@]1(O)[C@H](Cl)[C@@H]2O[C@]23[C@@]2(OC(=O)O[C@H]12)[C@H](Cl)C[C@H]1C2=C(CC[C@@]13C)C(=O)OC2` [PG757], the “inhibition of IL-2 production” value in data set [1] is listed as “inhibited IL-2 production”. In data set [1] (Homo sapiens, Jurkat, 24 h), the concentration for half-maximal inhibition (IC50) is 9 nM. Further, in data set [2], the “cytotoxicity in MTT assay compared with triptolide” value is given as “significantly more cytotoxic” and the “cytotoxicity to Jurkat cells” value is reported as “cytotoxic to Jurkat cells”. Moreover, in the data set “in vitro”, the EC50 was determined as 32 nM.

Take triptolide [PG490, reference compound]: in data set [1] (Jurkat cells stimulated with PMA and PHA, 24 hrs, test compounds incubated in serum for 24 hrs), the IC50 is 4 nM. In addition, the EC50 in data set [2] (read-out: Viability/Cytotoxicity MTT (ED50), Jurkat cells, 24 h culture, test compounds incubated in serum for 24 hrs) stood at 60 nM.
